Data: patent publication US20180221295A1, “PHARMACEUTICAL COMPOSITION COMPRISING ELECTROHYDRODYNAMICALLY OBTAINED FIBRES, THE COMPOSITION HAVING IMPROVED RESIDENCE TIME ON THE APPLICATION SITE” (DERMTREAT APS, priority 2015, published 2018)

Columns and labels:
[1] = In vitro drug release testing of fibres in Green's cell culture medium (HPLC); assay type: physicochemical; settings: 1.2x1.2 cm samples in 5 mL Green's cell culture medium, 37° C., 30, 60 and 120 minutes
Procedure: Compositions: Same as in example 4.
Composition of Green's cell culture medium - Dulbecco's Modified Eagle's Medium: Ham's F12 medium in a 3:1 (v/v) ratio supplemented with 10% (v/v) FCS • 0.1 μM cholera toxin • 10 ng/ml of epidermal growth factor (EGF) • 0.4 μg/ml hydrocortisone • 0.18 mM adenine • 5 μg/ml insulin • 5 μg/ml transferrin • 2 mM glutamine • 0.2 μM triiodothyronine • 0.625 μg/ml amphotericin B • 100 IU/ml penicillin • 100 μg/ml streptomycin
Method of Analysis: • Samples of dimensions 1.2×1.2 cm were cut from each fibre composition and were placed in vials containing 5 mL of Green's cell culture medium. • All vials were incubated at 37° C. for 30, 60 and 120 minutes. • At those time points, 1.5 mL of cell culture media were removed from each vial • The concentration of clobetasol propionate released from the fibres was measured using high-performance liquid chromatography (HPLC).

[2] = in vivo; cited from earlier work
[3] = in vivo; cited from earlier work; remark: listed apart in the source

Structure (SMILES): CCC(=O)O[C@]1(C(=O)CCl)[C@@H](C)C[C@H]2[C@@H]3CCC4=CC(=O)C=C[C@]4(C)[C@@]3(F)[C@@H](O)C[C@@]21C [clobetasol propionate]
- Release of clobetasol propionate from electrospun fibres [1]: released after immersion in cell culture media

Structure (SMILES): C/C=C(/C)C(=O)O[C@H]1C(C)=C[C@]23C(=O)[C@@H](C=C(CO)[C@@H](O)[C@]12O)[C@H]1[C@@H](C[C@H]3C)C1(C)C [Ingenol mebutate]
- Absorption through the skin [2]: practically not absorbed through the skin

Structure (SMILES): C[C@]12CCC(=O)C=C1CC[C@@H]1[C@@H]2[C@@H](O)C[C@@]2(C)[C@H]1CC[C@]2(O)C(=O)CO [Hydrocortisone]
- Absorption from the gut [3]: no significant absorption from the gut
